Assays:
Danio rerio embryo [1] = conditions: exposure time: 4 dpf
Experimental: (§1)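 Zebrafish embryos (UFZ-OBI strain) were exposed from 2 hpf for 48 h (2 dpf) or 96 h (4 dpf) at 28 °C; spontaneous tail coiling was scored at 25 hpf. Morphological features from automated image analysis (FishInspector), heart rate and locomotor response were fitted with drc models. Quantal endpoints were dichotomised at 2.5 SD from controls and fitted with a log-logistic model; heart rate, pigmentation and STC were normalised to the replicate control mean. Betamethasone was tested as betamethasone dipropionate, diflorasone as diflorasone diacetate.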

Danio rerio embryo [2] = system: Danio rerio embryo
Experimental: as §1

Danio rerio embryo [3] = system: Danio rerio embryo; remark: listed apart in the source
Experimental: as §1

Danio rerio embryo [4] = assay: EC50 Head size_Decrease; conditions: exposure time: 2 dpf
Experimental: as §1

Danio rerio embryo [5] = assay: EC10 Heart rate; higher = less potent
Experimental: as §1

Danio rerio embryo [6] = assay: EC10 Lack of SB; higher = less potent; conditions: exposure time: 4 dpf
Experimental: as §1

Danio rerio embryo [7] = assay: EC20 Lack of SB; higher = less potent; conditions: exposure time: 4 dpf
Experimental: as §1

Danio rerio embryo [8] = assay: EC20 Heart rate; higher = less potent
Experimental: as §1

Danio rerio embryo [9] = assay: EC50 Mandibular arch distance_Decrease; conditions: exposure time: 4 dpf
Experimental: as §1

Danio rerio embryo [10] = assay: EC20 STC bell shape; higher = less potent; conditions: exposure time: 25 h
Experimental: as §1

Danio rerio embryo [11] = assay: EC10 STC bell shape; higher = less potent; conditions: exposure time: 25 h
Experimental: as §1

Danio rerio embryo [12] = assay: EC20 Eye size_Decrease; higher = less potent
Experimental: as §1

Danio rerio embryo [13] = assay: EC10 Eye size_Decrease; higher = less potent
Experimental: as §1

Danio rerio embryo [14] = assay: EC20 Head size_Decrease; higher = less potent; conditions: exposure time: 2 dpf
Experimental: as §1

Danio rerio embryo [15] = assay: EC10 Head size_Decrease; higher = less potent; conditions: exposure time: 2 dpf
Experimental: as §1

Danio rerio embryo [16] = assay: EC10 Pigmentation decrease; higher = less potent
Experimental: as §1

Danio rerio embryo [17] = assay: EC20 Pigmentation decrease; higher = less potent
Experimental: as §1

Danio rerio embryo [18] = assay: EC10 Head trunk angle_Decrease; higher = less potent; conditions: exposure time: 2 dpf
Experimental: as §1

Danio rerio embryo [19] = assay: EC20 Head trunk angle_Decrease; higher = less potent; conditions: exposure time: 2 dpf
Experimental: as §1

Danio rerio embryo [20] = assay: EC20 Mandibular arch distance_Decrease; higher = less potent; conditions: exposure time: 4 dpf
Experimental: as §1

Danio rerio embryo [21] = assay: EC10 Mandibular arch distance_Decrease; higher = less potent; conditions: exposure time: 4 dpf
Experimental: as §1

Danio rerio embryo [22] = assay: EC10 STC decrease; higher = less potent; conditions: exposure time: 25 h
Experimental: as §1

Danio rerio embryo [23] = assay: EC20 STC decrease; higher = less potent; conditions: exposure time: 25 h
Experimental: as §1

Danio rerio embryo [24] = assay: EC20 LMR ligth increase; higher = less potent; conditions: exposure time: 4 dpf
Experimental: as §1

Danio rerio embryo [25] = assay: EC10 LMR ligth increase; higher = less potent; conditions: exposure time: 4 dpf
Experimental: as §1

Danio rerio embryo [26] = assay: EC10 LMR ligth decrease; higher = less potent; conditions: exposure time: 4 dpf
Experimental: as §1

Danio rerio embryo [27] = assay: EC20 LMR ligth decrease; higher = less potent; conditions: exposure time: 4 dpf
Experimental: as §1

Danio rerio embryo [28] = assay: EC20 Otolith; higher = less potent; conditions: exposure time: 2 dpf
Experimental: as §1

Danio rerio embryo [29] = assay: EC10 Otolith; higher = less potent; conditions: exposure time: 2 dpf
Experimental: as §1

Danio rerio embryo [30] = assay: EC50 Head-trunk angle_Decrease; conditions: exposure time: 2 dpf
Experimental: as §1

Danio rerio embryo [31] = assay: EC20 Head-trunk angle_Decrease; higher = less potent; conditions: exposure time: 2 dpf
Experimental: as §1

Danio rerio embryo [32] = assay: EC10 Head-trunk angle_Decrease; higher = less potent; conditions: exposure time: 2 dpf
Experimental: as §1

Compound	EC50 Lack of SB (Danio rerio embryo [1]) [µM]	EC50 Pigmentation decrease (Danio rerio embryo [2]; exposure time: 2 dpf) [µM]	EC50 Heart rate (Danio rerio embryo [3]; exposure time: 2 dpf) [µM]	EC50 Head size Decrease (Danio rerio embryo [4]) [µM]	EC10 Heart rate (Danio rerio embryo [5]; exposure time: 2 dpf) [µM]	EC10 Heart rate (Danio rerio embryo [5]; exposure time: 4 dpf) [µM]	EC10 Lack of SB (Danio rerio embryo [6]) [µM]	EC20 Lack of SB (Danio rerio embryo [7]) [µM]	EC20 Heart rate (Danio rerio embryo [8]; exposure time: 2 dpf) [µM]	EC20 Heart rate (Danio rerio embryo [8]; exposure time: 4 dpf) [µM]	EC50 Mandibular arch distance Decrease (Danio rerio embryo [9]) [µM]	EC20 STC bell shape (Danio rerio embryo [10]) [µM]	EC10 STC bell shape (Danio rerio embryo [11]) [µM]	EC20 Eye size Decrease (Danio rerio embryo [12]; exposure time: 2 dpf) [µM]	EC20 Eye size Decrease (Danio rerio embryo [12]; exposure time: 4 dpf) [µM]	EC10 Eye size Decrease (Danio rerio embryo [13]; exposure time: 2 dpf) [µM]	EC10 Eye size Decrease (Danio rerio embryo [13]; exposure time: 4 dpf) [µM]	EC20 Head size Decrease (Danio rerio embryo [14]) [µM]	EC10 Head size Decrease (Danio rerio embryo [15]) [µM]	EC10 Pigmentation decrease (Danio rerio embryo [16]; exposure time: 2 dpf) [µM]	EC20 Pigmentation decrease (Danio rerio embryo [17]; exposure time: 2 dpf) [µM]	EC10 Head trunk angle Decrease (Danio rerio embryo [18]) [µM]	EC20 Head trunk angle Decrease (Danio rerio embryo [19]) [µM]	EC20 Mandibular arch distance Decrease (Danio rerio embryo [20]) [µM]	EC10 Mandibular arch distance Decrease (Danio rerio embryo [21]) [µM]	EC50 Heart rate (Danio rerio embryo [3]; exposure time: 4 dpf) [µM]	EC10 STC decrease (Danio rerio embryo [22]) [µM]	EC20 STC decrease (Danio rerio embryo [23]) [µM]	EC20 LMR ligth increase (Danio rerio embryo [24]) [µM]	EC10 LMR ligth increase (Danio rerio embryo [25]) [µM]	EC10 LMR ligth decrease (Danio rerio embryo [26]) [µM]	EC20 LMR ligth decrease (Danio rerio embryo [27]) [µM]	EC20 Otolith (Danio rerio embryo [28]) [µM]	EC10 Otolith (Danio rerio embryo [29]) [µM]	EC50 Pigmentation decrease (Danio rerio embryo [2]; exposure time: 4 dpf) [µM]	EC50 Head-trunk angle Decrease (Danio rerio embryo [30]) [µM]	EC10 Pigmentation decrease (Danio rerio embryo [16]; exposure time: 4 dpf) [µM]	EC20 Pigmentation decrease (Danio rerio embryo [17]; exposure time: 4 dpf) [µM]	EC20 Head-trunk angle Decrease (Danio rerio embryo [31]) [µM]	EC10 Head-trunk angle Decrease (Danio rerio embryo [32]) [µM]
CCCCC(O)(Cn1cncn1)c1ccc(Cl)cc1Cl (centres undefined) [Hexaconazole]	10.3	22.6	39.8	54.3	8.31	5.53	6.28	7.52	14.8	11.1	37.1	19.2	17.5	48.8	12.2	44.9	10.7	40.3	33.8	17.8	19.4	12.8	16	24.9	19.8	–	–	–	–	–	–	–	–	–	–	–	–	–	–	–
CC(C)(C)C(O)C(Oc1ccc(Cl)cc1)n1cncn1 (centres undefined) [Triadimenol]	20.9	152	56.8	177	13.7	64.4	19.6	20.1	23.2	96.8	169	–	–	159	90.2	138	81.1	147	132	76.2	98.2	94.5	113	133	116	194	118	135	17.3	8.63	–	–	–	–	–	–	–	–	–	–
Cc1ccc(-c2cc(C(F)(F)F)nn2-c2ccc(S(N)(=O)=O)cc2)cc1 [Celecoxib]	9.14	34	–	–	10.3	2.25	8.08	8.45	16.1	4.72	–	23.8	20.4	–	10.5	–	9.06	–	–	23.7	27.1	–	–	–	–	–	–	–	–	–	–	–	–	–	–	–	–	–	–	–
CN(Cc1cnc2nc(N)nc(N)c2n1)c1ccc(C(=O)N[C@@H](CCC(=O)O)C(=O)O)cc1 [Methotrexate]	108	–	–	–	–	–	82.2	91	–	–	–	–	–	–	116	–	96.2	–	–	185	235	148	180	–	–	–	–	–	–	–	32.5	53.8	–	–	–	–	–	–	–	–
CCCCOC(=O)[C@@H](C)Oc1ccc(Oc2ccc(C(F)(F)F)cn2)cc1 [fluazifop-p-butyl]	1.65	9.58	–	6.88	–	–	0.734	0.991	–	–	–	–	–	1.69	1.07	1.03	0.781	4.24	3.19	2.74	4.35	1.74	3.89	–	–	–	–	–	–	–	–	–	6.11	4.73	–	–	–	–	–	–
CCO/N=C(\CC)C1=C(O)CC(c2c(C)cc(C)cc2C)CC1=O (centres undefined) [Tralkoxydim]	63.2	–	–	176	–	46.5	45.3	51.2	–	49.9	–	–	–	122	94.7	103	89.7	103	74.7	–	–	73.6	88	–	–	56.3	127	142	–	–	–	–	160	126	–	–	–	–	–	–
C[Si](Cn1cncn1)(c1ccc(F)cc1)c1ccc(F)cc1 [Flusilazole]	2.78	–	–	30.1	16	4.6	1.64	1.99	26.2	7.13	11.4	–	–	21.8	4.86	21.5	4.51	28.8	28.1	–	–	–	–	7.71	6.12	–	2.72	4.11	–	–	–	–	–	–	22.2	11.8	3.38	7.16	6.28	4.35
